The supplement of paper PMC5908809

Tests used:
IMC-1 (IL-2 20 ng/mL) [1] = assay: drug sensitivity score (DSS) (DSS units); higher = more sensitive; extreme values may be limits of the assay; conditions: 72 h
[2] = test system: normal primary NK cells, pool 1 (3 donors) (IL-2 2.5 ng/mL); assay: as above; conditions: 72 h
NKL (IL-2 2.5 ng/mL) [3] = assay: as above; conditions: 72 h
SNK-6 (IL-2 2.5 ng/mL) [4] = assay: as above; conditions: 72 h
KHYG-1 (IL-2 2.5 ng/mL) [5] = assay: as above; conditions: 72 h
YT (IL-2 2.5 ng/mL) [6] = assay: as above; conditions: 72 h
[7] = test system: normal primary NK cells, pool 3 (3 donors) (IL-2 2.5 ng/mL); assay: as above; conditions: 72 h
DERL-7 (IL-2 2.5 ng/mL) [8] = assay: as above; conditions: 72 h
[9] = test system: normal primary NK cells, pool 1 (3 donors), resting (IL-2 0 ng/mL); assay: as above; conditions: 72 h
NK-92 (IL-2 2.5 ng/mL) [10] = assay: as above; conditions: 72 h
NK-YS (IL-2 2.5 ng/mL) [11] = assay: as above; conditions: 72 h
[12] = test system: normal primary NK cells, pool 2 (3 donors) (IL-2 2.5 ng/mL); assay: as above; conditions: 72 h
KAI3 (IL-2 2.5 ng/mL) [13] = assay: as above; conditions: 72 h
[14] = test system: normal NK cells expanded with K562-aAPC; assay: as above; conditions: 72 h; IL-2 2.5 ng/mL
Description: (§1)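 Drug sensitivity and resistance testing on K562-aAPC-expanded normal NK cells: 5 concentrations (10-fold steps over a 10,000-fold range), 72 h at 37 °C, viability by CellTiter-Glo normalised to DMSO and benzethonium chloride controls; DSS from the fitted curve.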

[15] = test system: normal NK cells expanded with K562-aAPC; assay: percent inhibition of viability; higher = more inhibition; conditions: 72 h, IL-2 2.5 ng/mL
Description: as §1

IMC-1 (IL-2 20 ng/mL) [16] = assay: as above; conditions: 72 h
[17] = test system: normal primary NK cells, pool 1 (3 donors) (IL-2 2.5 ng/mL); assay: as above; conditions: 72 h
NKL (IL-2 2.5 ng/mL) [18] = assay: as above; conditions: 72 h
SNK-6 (IL-2 2.5 ng/mL) [19] = assay: as above; conditions: 72 h
KHYG-1 (IL-2 2.5 ng/mL) [20] = assay: as above; conditions: 72 h
YT (IL-2 2.5 ng/mL) [21] = assay: as above; conditions: 72 h
[22] = test system: normal primary NK cells, pool 3 (3 donors) (IL-2 2.5 ng/mL); assay: as above; conditions: 72 h
DERL-7 (IL-2 2.5 ng/mL) [23] = assay: as above; conditions: 72 h
[24] = test system: normal primary NK cells, pool 1 (3 donors), resting (IL-2 0 ng/mL); assay: as above; conditions: 72 h
NK-92 (IL-2 2.5 ng/mL) [25] = assay: as above; conditions: 72 h
NK-YS (IL-2 2.5 ng/mL) [26] = assay: as above; conditions: 72 h
[27] = test system: normal primary NK cells, pool 2 (3 donors) (IL-2 2.5 ng/mL); assay: as above; conditions: 72 h
KAI3 (IL-2 2.5 ng/mL) [28] = assay: as above; conditions: 72 h

Cn1c(=O)c(F)c(Nc2ccc(I)cc2F)c2c(=O)n(C[C@@H](O)CO)cnc21 [TAK-733] (max concentration tested 1000 nM)
Conditions | drug sensitivity score
DERL-7 (IL-2 2.5 ng/mL) [8] | 10.7
IMC-1 (IL-2 20 ng/mL) [1] | 1
KAI3 (IL-2 2.5 ng/mL) [13] | 5.51
KHYG-1 (IL-2 2.5 ng/mL) [5] | 11.7
NK-92 (IL-2 2.5 ng/mL) [10] | 0.33
NK-YS (IL-2 2.5 ng/mL) [11] | 1.77
NKL (IL-2 2.5 ng/mL) [3] | 17.2
SNK-6 (IL-2 2.5 ng/mL) [4] | 0
YT (IL-2 2.5 ng/mL) [6] | 0.35
[2] | 0.17
[7] | 0
[9] | 0
[12] | 2.88
[14] | 0.89

percent inhibition of viability [%]
Conditions | 0.1 nM | 1 nM | 10 nM | 100 nM | 1000 nM
DERL-7 (IL-2 2.5 ng/mL) [23] | 3.05 | 13.4 | 23 | 41.5 | 47.2
IMC-1 (IL-2 20 ng/mL) [16] | -1.32 | 1.37 | 0.58 | 3.83 | 18.9
KAI3 (IL-2 2.5 ng/mL) [28] | 2.03 | 4.38 | 17.2 | 23.1 | 29.4
KHYG-1 (IL-2 2.5 ng/mL) [20] | 4.66 | 9.31 | 20.6 | 48.8 | 64.9
NK-92 (IL-2 2.5 ng/mL) [25] | 3 | 0.98 | -25.3 | -5.54 | 19.1
NK-YS (IL-2 2.5 ng/mL) [26] | -2.42 | 2.48 | 3.61 | 10.7 | 25.6
NKL (IL-2 2.5 ng/mL) [18] | 0.9 | 12 | 40.6 | 60.1 | 81.3
SNK-6 (IL-2 2.5 ng/mL) [19] | 6 | 0.96 | -6.2 | 3.19 | -10.3
YT (IL-2 2.5 ng/mL) [21] | -3.29 | 0.91 | 1.73 | 6.99 | 14.3
[15] | -0.54 | 1.65 | 5.46 | 3.7 | 18.7
[17] | -3.53 | 3.59 | 5.44 | 11.3 | 7.77
[22] | -10.4 | -14.4 | -11.3 | 2.73 | 8.36
[24] | -1.91 | 4.44 | -3.15 | -6.45 | -3.7
[27] | -4.31 | -4.06 | 11.2 | 17 | 13.8
